In PubChem BioAssay AID1963852 (Molecular Pharmacology Branch, DTP, NCI, 2024):
pIC50: −log10 of the molar value. Values joined by “and” are separate entries in the source; they are usually repeats but may differ in a detail not shown here. Equal values may be shown once.

Test system: 282377-053-R-J1-PDC complex spheroid viability
Experiment: Anticancer human tumor 282377-053-R-J1-PDC patient-derived colon adenocarcinoma cell line growth inhibition [POLQ]
Conditions: for viability, T/C: stronger effect = lower value; for pIC50: curve of compound
Description: Multicellular complex tumor spheroid response to Polymerase (POL) inhibitors (novobiocin, ART-558, RP6685) in combination with a variety of drugs and investigational agents in selected tumor cell lines
The POL inhibitors (novobiocin, ART-558, and RP6685) were evaluated both individually and in combination with standard of care and investigational anticancer small molecules within a complex spheroid model of solid tumors. . Complex spheroids include a stromal component modeled by human endothelial cells (HUVEC) and fibroblasts modeled by human mesenchymal stem cells (MSCs). The concentration ranges selected for each drug and investigational agent were based upon clinically achievable concentrations if the clinical Cmax of the agent was known.
Compounds. The drugs and investigational agents: novobiocin (NSC847541), ART-558 (NSC835418), RP-6685 (NSC848927), peposertib (NSC802822), ceralasertib (NSC780249), elimusertib (NSC800525), camonsertib (NSC841442), AZD-1390 (NSC803789), olaparib (NSC753686), talazoparib (NSC767125), rucaparib (NSC756644), sotorasib (NSC818433), MRTX-1133 (NSC836407), SN-38 (NSC673596), topotecan (NSC609699), epotoside (NSC141540), doxorubicin (NSC123127), gemcitabine (NSC613327), 5-fluorouracil (NSC19893), paclitaxel (NSC125973), vemurafenib (NSC761431), MSA-2 (NSC828583), SN-011 (NSC837082), adavosertib (NSC754352), prexasertib (NSC758257), carboplatin (NSC241240) and oxaliplatin (NSC266046), were obtained from the National Cancer Institute (NCI) Developmental Therapeutics Program Chemical Repository (21). The FDA-approved anticancer drug set is available from the Developmental Therapeutics Program at https://dtp.cancer.gov/organization/dscb/obtaining/. […] The stock solutions were prepared in dimethyl sulfoxide (DMSO, Sigma-Aldrich, St. Louis, MO, cat. D2650), except for the platinum compounds which were prepared in saline (Quality Biological, Gaithersburg, MD, cat. 114-055-101), at 800-fold the tested concentration and stored at -70 degrees C prior to their use. All drugs and investigational agents were tested over a range starting from a high concentration at or near the clinical Cmax and decreasing in half-log increments. If the clinical Cmax for an agent had not been determined, the highest concentration tested was 10 microM, except for SN-38, which was tested at a high concentration of 1 microM.
Cell Culture. All cells were maintained in an incubator at 37 degrees C and 5% CO2 with 95% humidity. The PDC lines were cultured according to standard operating procedures established by the NCI PDMR (https://pdmr.cancer.gov). Table 3 of the manuscript, lists the cell lines along with the number of the three cell types plated to form the mct-spheroids and media for tumor cell growth. After thawing, all PDC lines, except 997537-175-T-J1-PDC and 415267-285-R-J2-PDC, were cultured in Matrigel-coated flasks prepared with a working solution of 1X Ham's F-12 nutrient mix, without supplementation (Thermo Fisher Scientific, cat. 11765054), 100 U/mL penicillin-streptomycin (Thermo Fisher Scientific, cat. 15140122), and 2.5% Matrigel (Corning Inc., Corning, NY, cat. 354248) for the first three passages. The two PDC lines 997537-175-T-J1-PDC and 415267-285-R-J2-PDC were cultured on uncoated flasks. The 857933-349-R-J2-PDC line was cultured in 6C/Colon 1B media containing advanced DMEM/F-12 (Thermo Fisher Scientific, cat. 12634028), 10 mM HEPES (Thermo Fisher Scientific, cat. 15630080), 1X GlutaMAX supplement (Thermo Fisher Scientific, cat. 35050061), 0.1 mg/mL primocin (InvivoGen, San Diego, CA, cat. ant-pm-2), 10% defined fetal bovine serum, heat inactivated (HyClone Laboratories Inc., Logan, UT, cat. SH30070.03HI), 50% L-WRN conditioned media (ATCC, cat. CRL-3276), 1.25 mM N-Acetyl-L-cysteine (Sigma-Aldrich, cat. A9165), 10 mM nicotinamide (Sigma-Aldrich, cat. N0636), 1X B-27 supplement (Thermo Fisher Scientific, cat. 17504044), 1X N-2 supplement (Thermo Fisher Scientific, cat. […]
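Note: spheroids exposed to compounds for seven days.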
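Throughout, for viability, T/C: 100% = DMSO vehicle control viability.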

Row | SMILES | viability, T/C (compound 0.0316 µM) | viability, T/C (compound 0.1 µM) | viability, T/C (compound 0.316 µM) | viability, T/C (compound 1 µM) | viability, T/C (compound 3.16 µM) | viability, T/C (compound 10 µM) | pIC50 | viability, T/C (compound 0.00316 µM) | viability, T/C (compound 0.01 µM) | viability, T/C (compound 0.00949 µM) | viability, T/C (compound 0.03 µM) | viability, T/C (compound 0.0949 µM) | viability, T/C (compound 0.3 µM) | viability, T/C (compound 0.949 µM) | viability, T/C (compound 3 µM) | viability, T/C (compound 0.000316 µM) | viability, T/C (compound 0.001 µM)
1 | C#Cc1c(F)ccc2cc(O)cc(-c3ncc4c(N5CC6CCC(C5)N6)nc(OCC56CCCN5CC(F)C6)nc4c3F)c12 (centres undefined) | 64.6% and 97.7% and 80.6% | 88.7% and 85.6% and 110% | 112% and 102% and 114% | 99.1% and 101% and 114% | 84% and 93.9% and 105% | 74.8% and 83.1% and 86.3% | < 5.00 | – | – | – | – | – | – | – | – | – | –
2 | C=CC(=O)N1CCN(c2nc(=O)n(-c3c(C)ccnc3C(C)C)c3nc(-c4c(O)cccc4F)c(F)cc23)C(C)C1 (centres undefined) | 90.8% and 111% and 101% | 96% and 93.3% and 101% | 82.7% and 111% and 107% | 82.8% and 111% and 110% | 94% and 105% and 101% | 78.2% and 87% and 86.5% | < 5.00 | – | – | – | – | – | – | – | – | – | –
3 | C=CCn1c(=O)c2cnc(Nc3ccc(N4CCN(C)CC4)cc3)nc2n1-c1cccc(C(C)(C)O)n1 | 98% and 116% and 91.7% | 103% and 95.6% and 93.7% | 109% and 85.2% and 82.7% | 81.5% and 87.5% and 68.1% | – | – | < 6.00 | 107% (2×) and 111% | 119% and 95.2% and 85.9% | – | – | – | – | – | – | – | –
4 | CC(=O)O[C@H]1C(=O)[C@@]2(C)[C@H]([C@H](OC(=O)c3ccccc3)[C@]3(O)C[C@H](OC(=O)[C@H](O)[C@@H](NC(=O)c4ccccc4)c4ccccc4)C(C)=C1C3(C)C)[C@]1(OC(C)=O)CO[C@@H]1C[C@@H]2O | – | – | – | – | – | – | – | – | – | 93.6% and 91% and 48.6% | 40.4% and 58.8% and 17.8% | 40.3% and 41.6% and 17.4% | 42% and 47.9% and 19% | 42.7% and 50.8% and 21.5% | 47.6% and 61% and 28.4% | – | –
5 | CC(C)n1c(=O)n(C)c2cnc3cc(F)c(-c4ccc(OCCCN5CCCCC5)nc4)cc3c21 | 103% and 107% and 118% | 133% and 106% and 113% | 104% and 103% and 109% | 103% and 118% and 107% | 104% and 114% and 103% | 104% and 108% and 105% | < 5.00 | – | – | – | – | – | – | – | – | – | –
6 | CC1COCCN1c1cc(-c2ccnn2C)c2ccnc(-c3ccn[nH]3)c2n1 (centres undefined) | 93.1% and 105% and 77.6% | 67.1% and 76.9% and 73.5% | 55.3% and 44.6% and 61.7% | 37.6% and 31.7% and 57.4% | 35.6% and 27.5% and 46% | 25.1% and 22.8% and 38.4% | 6.39 and 6.57 and 5.68 | – | – | – | – | – | – | – | – | – | –
7 | CC1COCCN1c1cc(C2(O)CC3CCC(C2)O3)c2cnn(-c3ccn[nH]3)c2n1 (centres undefined) | 79.8% and 96.8% and 76.4% | 77% and 69.1% and 83.1% | 57.1% and 59.1% and 53.6% | 29.4% and 34.3% and 49.3% | 27.7% and 24.9% and 49.9% | 16.7% and 22% and 41.5% | 6.37 and 6.41 and 6.23 | – | – | – | – | – | – | – | – | – | –
8 | CC1COCCN1c1cc(C2(S(C)(=N)=O)CC2)nc(-c2ccnc3[nH]ccc23)n1 (centres undefined) | 93% and 90.1% and 105% | 95.7% and 96.4% and 89.9% | 86.7% and 94.9% and 95.5% | 75.4% and 89.4% and 93.3% | 57.4% and 74.8% and 62% | 46.7% and 55.4% and 47% | 5.15 and < 5.00 and 5.10 | – | – | – | – | – | – | – | – | – | –
9 | CCCS(=O)(=O)Nc1ccc(F)c(C(=O)c2c[nH]c3ncc(-c4ccc(Cl)cc4)cc23)c1F | 93.1% and 82.2% and 78.1% | 85.3% and 76.1% and 69.5% | 85.1% and 71% and 76.2% | 72% and 64.2% and 46.1% | 68.8% and 63.2% and 64.1% | 69.5% and 72.5% and 26.7% | < 5.00 and 5.47 | – | – | – | – | – | – | – | – | – | –
10 | CC[C@@]1(O)C(=O)OCc2c1cc1n(c2=O)Cc2cc3c(CN(C)C)c(O)ccc3nc2-1 | 98.5% and 97.7% and 86.9% | 81.5% and 110% and 76.7% | – | – | – | – | < 7.00 | 77% and 92.2% and 116% | 119% and 104% and 94.3% | – | – | – | – | – | – | 98.9% and 101% and 105% | 93.9% and 102% and 98.8%
11 | CCc1c2c(nc3ccc(O)cc13)-c1cc3c(c(=O)n1C2)COC(=O)[C@]3(O)CC | 63.4% and 83.3% and 72.2% | 44.6% and 68.1% and 50.9% | 31.1% and 69.5% and 42% | 20% and 66.9% and 19.1% | – | – | – | 106% and 102% and 122% | 69.4% and 103% and 64.5% | – | – | – | – | – | – | – | –
12 | CCc1cc2c(N3CCc4c(cc(Cn5ccnc5)cc4-c4cn(C)nc4C(F)(F)F)C3=O)cc(C)nc2c(OC)n1 | 103% and 99% and 81.1% | 120% and 97.4% and 84.6% | 124% and 98% and 87.1% | 144% and 89.3% and 98.1% | 112% and 113% and 109% | 72.1% and 119% and 109% | < 5.00 | – | – | – | – | – | – | – | – | – | –
13 | CCc1cc2c(N3CCc4c(cc(Cn5ccnc5)cc4-c4cn(C)nc4C(F)(F)F)C3=O)ccnc2c(OC)n1 | 128% and 102% and 81.9% | 138% and 96.1% and 88.3% | 140% and 95% and 77.2% | 129% and 82.6% and 88.5% | 121% and 93.2% and 89.4% | 88% and 110% and 120% | < 5.00 | – | – | – | – | – | – | – | – | – | –
